Assay results from patent US4939133A, “N-substituted-2-hydroxy-α-oxo-benzeneacetamides and pharmaceutical compositions having activity as modulators of the arachidonic acid cascade” (Warner-Lambert Company, priority 1985, dated 1990).

Molecular target: T1, 5-lipoxygenase (isolated human leukocytes) (Homo sapiens, UniProt P09917)
T1 construct: 5-Lipoxygenase Assay Using Isolated Human Leukocytes (5LOA2); endogenous in cells; host or cells: isolated human blood leukocytes, platelets removed
T1 sequence (P09917 1-674): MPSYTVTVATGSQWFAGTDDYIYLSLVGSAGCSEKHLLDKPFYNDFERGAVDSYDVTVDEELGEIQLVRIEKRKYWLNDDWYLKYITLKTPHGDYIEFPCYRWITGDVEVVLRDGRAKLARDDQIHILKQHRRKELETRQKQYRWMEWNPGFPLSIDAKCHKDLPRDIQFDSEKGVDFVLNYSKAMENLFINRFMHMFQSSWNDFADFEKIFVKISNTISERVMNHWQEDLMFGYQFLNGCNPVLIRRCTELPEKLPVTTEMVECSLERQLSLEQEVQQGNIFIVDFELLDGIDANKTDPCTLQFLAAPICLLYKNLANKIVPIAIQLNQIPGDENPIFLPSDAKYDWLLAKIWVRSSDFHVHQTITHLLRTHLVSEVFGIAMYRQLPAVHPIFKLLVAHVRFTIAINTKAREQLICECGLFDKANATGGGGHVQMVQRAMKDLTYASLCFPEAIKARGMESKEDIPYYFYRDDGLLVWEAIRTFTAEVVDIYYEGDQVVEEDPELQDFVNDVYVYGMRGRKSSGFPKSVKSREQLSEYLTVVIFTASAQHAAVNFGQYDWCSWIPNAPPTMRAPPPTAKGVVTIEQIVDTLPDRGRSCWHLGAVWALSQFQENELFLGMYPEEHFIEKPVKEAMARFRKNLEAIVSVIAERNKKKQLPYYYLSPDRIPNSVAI
Assay: 5-Lipoxygenase Assay Using Isolated Human Leukocytes (5LOA2)
Type: cell-based
Conditions: 5LOA2; 50% inhibition of 5-HETE formation; E -number means X 10^-no.; read-out: Concentration giving 50.00 % Inhibition (5LOA2)
Experimental: 5-Lipoxygenase Assay Using Isolated Human Leukocytes (5LOA2)
The formation of 5-HETE in human leukocytes is considered a measure of 5-lipoxygenase activity. The protocol is described in the following.
Fresh heparinized or EDTA treated human blood is mixed with 6% dextran-3% dextrose in isotonic saline in the ratio 0.25 ml dextran solution per 1.0 ml blood. After mixing the blood is allowed to sit at room temperature for about 90 minutes while the RBC's settle. During this period, the plasma is removed with a plastic pipette to nalgens tubes.
The plasma is centrifuged at 800 rpm ([…]) on the Beckman Td-b refrigerated centrifuge to remove the platelets (which remain in the supernatant). The pellet, consisting of leukocytes and erythrocytes, is treated with 10 ml 0.87% ammonium chloride at room temperature for four minutes, lysing the red cells. At the end of four minutes the cells are diluted with a 2×volume of phosphate buffered saline, pH 7.4, and centrifuged for ten minutes. The cells are washed three times with the phosphate buffered saline. Any of the pelleted cell matter which is not easily resuspended is discarded during the washings --the material contains platelets (12-lipoxygenase activity).
After washing, the cells are resuspended in phosphate buffered saline containing 1.0 mM calcium and 0.5 mM magnesium. After counting the cells are diluted to 1.5-2.0×10^7 leukocytes per milliliter.
To each polypropylene reaction tube is added 0.48 ml leukocytes in Ca-Mg phosphate buffered saline, pH 7.4; 1-5 μl test compound dissolved in DMSO and buffer; or DMSO for control tubes.
The tubes preincubate at 37° C. for five minutes. […]
A portion of the ethanol solution is injected into the HPLC system for 5-HETE quantitation.
The HPLC system consists of Hewlett-Packard 1040A UV spectrophotometry system with an HP85 computer. […] Peaks are measured with a Hewlett Packard 3360A integrator. […] The flow is monitored at 235 nm for 5-HETE quatitation. […]

IC50: 1690 nM
Structure (SMILES): COc1ccc(CCc2ccc(NC(=O)c3ccc(C)cc3O)cc2)cc1OC [Example 46, N-[4-[2-(3,4-Dimethoxyphenyl)ethyl]phenyl]-2-hydroxy-4-methylbenzamide]
